According to article PMC11862611 (RSC Medicinal Chemistry, 2025):
Counter-ions that a name gives are not always drawn. Like-named read-outs stand apart in the source and are kept apart here.

Experiments:
[1] = test system: L. amazonensis GFP promastigotes; assay: mouse model of L. amazonensis infection (ear, IL dosing); type: in vivo, BALB/c mice; conditions: 1.2 mg kg^−1 IL twice a week for 4 weeks
Description: Consequently, we used IL dosing for this experiment. To enable direct comparison with CF, the same treatment regimen (dose of 1.2 mg kg^−1via IL injection twice a week for 4 weeks starting on DPI) was used for both compounds.
A Weight variation of mice during 28 days of treatment. B Progression of lesion thickness over 28 day treatment period. C Representative photographs of the infected ear for each group taken after completion of treatment, D parasite burden was evaluated by LDA on 36 days post infection. […]
In vivo assays were conducted as previously reported 1. Two month old BALB/c female mice, weighing 20 - 25 g and of approximately the same age were used for the study. For infection of mice, stationary phase GFP L. amazonensis promastigotes were collected, washed and suspended in sterile PBS. A volume of 10 μl of sterile PBS containing 2 x 10^6 parasites was injected into the right ear. […]
Infected ear thicknesses were measured once or twice a week with a caliper gauge, and the lesion sizes were expressed as the difference between the thickness of infected and non-infected ear. On day 41 animals were sacrificed and the fluorescence measured (485 - 528 nm) and parasite load quantified using a limiting dilution assay (LDA).
Data on lesion progression were analysed for statistical significance by using the Dunnett test as part of the one-way ANOVA (GraphPad Prism 8 software). […]

[2] = test system: panel of neurotransmitter receptors; assay: radioligand displacement assay, whole panel; type: binding, human
Description: 4.2.3.6. Radioligand Binding Assay (Supplemental Figure S3)
These assays were run by Eurofins under contract to LifeArc FR095-0011887. A representative protocol describing the human histamine H2 receptor (antagonist radioligand) assay is shown below.12 Cell membrane homogenates (24 µg protein) are incubated for 120 min at 22°C with 0.075 nM [125I]APT in the absence or presence of the test compound in a buffer containing 50 mM Na2HPO4/KH2PO4 (pH […]
7.4) and 0.05% BSA. […] Following

[3] = test system: L. major PX promastigotes; assay: on-target growth inhibition, add-back cell line (PX); type: cell-based, Leishmania major
L. majIPCS = biological target: T1, L. majIPCS (Leishmania major, UniProt E9AFX2); assay: inhibition of microsomal enzyme preparation of L. majIPCS; type: biochemical; conditions: for inhibition at 20 µM: read-out: LmjIPCS inhibition % at 20 µM ± SD
T1 construct: made in house
T1 sequence (E9AFX2 1-338): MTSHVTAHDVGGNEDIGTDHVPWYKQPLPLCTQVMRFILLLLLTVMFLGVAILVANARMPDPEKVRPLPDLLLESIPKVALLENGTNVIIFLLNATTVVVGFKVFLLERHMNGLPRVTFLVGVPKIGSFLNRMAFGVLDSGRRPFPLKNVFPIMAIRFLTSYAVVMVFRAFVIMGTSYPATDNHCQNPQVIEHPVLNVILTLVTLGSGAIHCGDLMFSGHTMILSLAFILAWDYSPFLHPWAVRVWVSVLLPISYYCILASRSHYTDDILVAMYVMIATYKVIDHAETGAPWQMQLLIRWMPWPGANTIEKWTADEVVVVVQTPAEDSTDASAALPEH
Excerpt: When tested against microsomal enzyme preparations of L. majIPCS[16] (Fig. 2, Table S1 ^†) the comparisons of pyrrolidine, tetrahydrofuran and cyclopentane derivatives 19, 21–23 supported earlier observations that all active compounds retained a basic nitrogen in the head group.[17] In general, whilst enzyme inhibitory activity was retained in a number of these analogues, much lower activity was observed against promastigote parasites. […] Speculating that this lower activity in promastigote parasite assays reflected a (membrane) transport issue, we then explored the corresponding ether derivative 27. Attempts to prepare this by acid catalysed ether formation failed and ultimately this was achieved through displacement of the corresponding benzylic chloride 25 (Scheme 3).
Fig. 2 Activity of a selection of simple amide and triazole linked CF analogues against a microsomal preparation of L. majIPCS and L. major promastigote parasites, respectively.

[4] = test system: L. major promastigotes (FV1) WT; assay: anti-promastigote assay, L. major (resazurin); type: cell-based; conditions: Leishmania major
Description: 4.2.3.1. Anti-promastigote assays
L. major promastigotes (FV1) WT, PX and Δ LCB2 in Schneider’s insect medium (100 μL at 1 × 106 mL−1) were incubated in 96-well plates with compounds in triplicate (amphotericin B and cycloheximide were used as positive controls, and untreated parasites with 1% DMSO as a negative control) at 26 °C for 48 h.
Resazurin Solution (10 μL) was then added and the plate incubated at 26 °C for 4 h prior to measurement using a fluorescence plate reader (555 - 585 nm). EC50 values were calculated using sigmoidal regression analysis (GraphPad Prism). […]
(§1) well-1 in a 24-well plate with round cover slips and incubated for 24 h at 37 °C and 5% CO2. […]

[5] = test system: L. amazonensis promastigotes; assay: anti-promastigote assay, L. amazonensis (resazurin); type: cell-based; conditions: Leishmania amazonensis
Description: 4.2.3.1. Anti-promastigote assays […]
Protocol 1: L. amazonensis promastigotes in Medium 199 (100 μL at 5 × 105 mL−1) were incubated in 96-well plates with compounds in triplicate (amphotericin B was used as a positive control, and untreated parasites with DMSO as a negative control) at 26 °C for 72 h. Resazurin Solution (10 μL) was then added and the plate incubated at 26 °C for 4 h prior to measurement using a fluorescence plate reader (555 - 585 nm). EC50 values were calculated using sigmoidal regression analysis (GraphPad Prism).
Protocol 2: Same procedure as above with the modification of a 48 h incubation time as opposed to 72 h and Leishmania amazonensis (MHOM/Br/75/JOSEFA) in Schneider’s insect medium in the place of Leishmania amazonensis (MHOM/Br/75/JOSEFA) in Medium 199. […]
as §1

[6] = promastigotes, 48 h, read-out: L. major promastigote EC50
[7] = promastigote parasites (Table 1), read-out: L.mj EC50
[8] = promastigote parasites (Table 1), read-out: L.amaz EC50
[9] = 48 h, read-out: L. major promastigote EC50
[10] = read-out: L. amaz promastigote EC50

`CN1CCC[C@@H]1CCO[C@](C)(c1ccccc1)c1ccc(Cl)cc1` [1a, clemastine fumarate, reference compound] was tested, and the lesion growth trends ([1]; 35 days post-infection) was “similar”, the “parasitaemia (parasite burden by LDA) versus untreated group” value ([1]; LDA 36 days post infection) was “statistically significant reduction” and the “binding profile across receptor panel” value [2] was “activity against a broad representation of receptor sub-types”. The “sensitivity in the add-back cell line (PX)” value [3] was “Sensitivity was restored”.
With `CN1CCC[C@H]1c1cn(C(c2ccccc2)c2ccc(Cl)cc2)nn1` (stereo partly drawn) [14a] the IC50 (L. majIPCS) was 14.5 µM, the inhibition at 20 µM (L. majIPCS; 20 µM, microsomal preparation) was 60.6 ± 9.2% and the EC50 [4, 6] was > 33 µM.
For `CN1CCCC1c1cn(C(c2ccccc2)c2ccc(Cl)cc2)nn1` (stereo not drawn) [14b], the IC50 (L. majIPCS) was 8.49 µM, the inhibition at 20 µM (L. majIPCS; 20 µM, microsomal preparation) was 71 ± 9.7% and the EC50 [4, 6] was > 33 µM.
Molecule `C[C@H]1CCCN1CCOC(c1ccccc1)c1ccc(Cl)cc1` (stereo partly drawn) [38a] has an EC50 ([4]; read-out: L.mj EC50) of 2.05 µM and an EC50 ([5]; read-out: L.amaz EC50) of 3.4 µM.
For `C[C@@H]1CCCN1CCOC(c1ccccc1)c1ccc(Cl)cc1` (stereo partly drawn) [38b], the EC50 ([4]; read-out: L.mj EC50) was 2.65 µM and the EC50 ([5]; read-out: L.amaz EC50) was 4.1 µM.
Molecule `COC(=O)[C@H]1CCCN1CCOC(c1ccccc1)c1ccc(Cl)cc1` (stereo partly drawn) [38c] has an EC50 ([4]; read-out: L.mj EC50) of 23.8 µM and an EC50 ([5]; read-out: L.amaz EC50) of 17.4 µM.
Work on `OC[C@H]1CCCN1CCOC(c1ccccc1)c1ccc(Cl)cc1` (stereo partly drawn) [38d] yielded an EC50 ([4]; read-out: L.mj EC50) of 5.88 µM and an EC50 ([5]; read-out: L.amaz EC50) of 3.2 µM.
Work on `COC[C@H]1CCCN1CCOC(c1ccccc1)c1ccc(Cl)cc1` (stereo partly drawn) [38e] yielded an EC50 ([4]; read-out: L.mj EC50) of 14.4 µM and an EC50 ([5]; read-out: L.amaz EC50) of 12.3 µM.
`Clc1ccc(C(OCCN2CCCC2)c2ccccc2)cc1` (stereo not drawn) [38f] showed an EC50 ([5]; read-out: L.amaz EC50) of 3.27 µM.
Molecule `C[C@H]1CCCN1CCCCOC(c1ccccc1)c1ccc(Cl)cc1` (stereo partly drawn) [38g] has an EC50 [4, 7] of 1.21 µM.
`C[C@H]1CCCN1CCCOC(c1ccccc1)c1ccc(Cl)cc1` (stereo partly drawn) [38h] showed an EC50 [4, 7] of 0.09 µM.
With `C[C@H]1CCCN1CCO[C@@H](c1ccccc1)c1ccc(Cl)cc1` [38i] the EC50 ([4]; read-out: L.mj EC50) was 7.05 µM.
Work on `C[C@@H]1CCCN1CCO[C@@H](c1ccccc1)c1ccc(Cl)cc1` [38j] yielded an EC50 ([4]; read-out: L.mj EC50) of 11.5 µM.
Molecule `C[C@@H]1CCCN1CCO[C@H](c1ccccc1)c1ccc(Cl)cc1` [38k] has an EC50 ([4]; read-out: L.mj EC50) of 1.7 µM and an EC50 ([5]; read-out: L.amaz EC50) of 3.2 µM.
`C[C@@H]1CCCN1CCCO[C@H](c1ccccc1)c1ccc(Cl)cc1` [38m] was tested, and the EC50 [4, 7] was 0.031 µM and the EC50 [5, 8] was 0.042 µM.
For `CC1(C)CCCN1CCCO[C@H](c1ccccc1)c1ccc(Cl)cc1` [38n], the EC50 [4, 7] was 0.027 µM and the EC50 [5, 8] was 0.017 µM.
For `Clc1ccc([C@H](OCCCN2CCCC2)c2ccccc2)cc1` [38o], the EC50 [4, 7] was 0.08 µM and the EC50 [5, 8] was 0.1 µM.
`Clc1ccc(C(OCCC2CCCN2)c2ccccc2)cc1` (stereo not drawn) [compound 7] was tested, and the IC50 (L. majIPCS) was 6.26 µM, the inhibition at 20 µM (L. majIPCS) was 78.1 ± 12.5% and the EC50 [4, 9] was 4.1 µM.
In the case of `CN1CCC[C@H]1CCOC(c1ccccc1)c1ccc(Cl)cc1` (stereo partly drawn) [compound 9], the IC50 (L. majIPCS) is reported as 4.45 µM, the inhibition at 20 µM (L. majIPCS) is reported as 81.2 ± 10.6% and the EC50 [4, 9] is reported as 1.69 µM.
`CN1CCC[C@@H]1CCOC(c1ccccc1)c1ccc(Cl)cc1` (stereo partly drawn) [compound 10] gave an IC50 (L. majIPCS) of 4.13 µM, an inhibition at 20 µM (L. majIPCS) of 78.1 ± 9.7% and an EC50 [4, 9] of 0.78 µM.
For `O=C(NCC1CCCN1)C(c1ccccc1)c1ccc(Cl)cc1` (stereo not drawn) [compound 19], the IC50 (L. majIPCS) was 6.9 µM, the inhibition at 20 µM (L. majIPCS; 20 µM, microsomal preparation) was 81.2 ± 1.3% and the EC50 [4, 6] was > 33 µM.
With `O=C(CC1CCCN1)NC(c1ccccc1)c1ccc(Cl)cc1` (stereo not drawn) [compound 21] the IC50 (L. majIPCS) was 6.95 µM, the inhibition at 20 µM (L. majIPCS; 20 µM, microsomal preparation) was 82.7% and the EC50 [4, 6] was > 33 µM.
For `O=C(NCC1CCCO1)C(c1ccccc1)c1ccc(Cl)cc1` (stereo not drawn) [compound 22], the inhibition at 20 µM (L. majIPCS; 20 µM, microsomal preparation) was 2.9 ± 1.4%.
`O=C(CC1CCCC1)NC(c1ccccc1)c1ccc(Cl)cc1` (stereo not drawn) [compound 23] gave an inhibition at 20 µM (L. majIPCS; 20 µM, microsomal preparation) of -5.4 ± 2.3%.
In the case of `CN(C)CCn1ncc2ccc(NC(=O)C(c3ccccc3)c3ccc(Cl)cc3)cc21` (stereo not drawn) [compound 24], the IC50 (L. majIPCS) is reported as 2.41 µM, the inhibition at 20 µM (L. majIPCS; 20 µM, microsomal preparation) is reported as 90.2 ± 2.4% and the EC50 [4, 6] is reported as > 10 µM.
`CN(C)CCn1ncc2ccc(COC(c3ccccc3)c3ccc(Cl)cc3)cc21` (stereo not drawn) [compound 27] was tested, and the IC50 (L. majIPCS) was 4.72 µM and the EC50 [4, 6] was > 5 µM.
`CN1CCC[C@@H]1CCOC(c1ccccc1)c1ccccc1` [compound 28] was tested, and the EC50 [4, 9] was 8.44 µM and the EC50 [5, 10] was 1.17 µM.
Work on `CN1CCC[C@@H]1CCOC(c1ccccc1)c1ccc(Br)cc1` (stereo partly drawn) [compound 29] yielded an IC50 (L. majIPCS) of 3.21 µM and an EC50 [4, 9] of 1.36 µM.
`COc1ccc(C(OCC[C@H]2CCCN2C)c2ccccc2)cc1` (stereo partly drawn) [compound 30] showed an EC50 [4, 9] of 6.83 µM and an EC50 [5, 10] of 0.5 µM.
With `COc1cccc(C(OCC[C@H]2CCCN2C)c2ccccc2)c1` (stereo partly drawn) [compound 31] the EC50 [4, 9] was 8.44 µM and the EC50 [5, 10] was 0.63 µM.
`CN1CCC[C@@H]1CCOC(c1ccccc1)c1ccc(F)cc1` (stereo partly drawn) [compound 32] gave an EC50 [4, 9] of 2.25 µM and an EC50 [5, 10] of 1.62 µM.
Work on `CN1CCC[C@@H]1CCOC(c1ccc(F)cc1)c1ccc(F)cc1` [compound 33] yielded an EC50 [4, 9] of 2.87 µM and an EC50 [5, 10] of 2.74 µM.
For `CN1CCC[C@@H]1CCO[C@H](c1ccccc1)c1ccc(Cl)cc1` [compound 35], the “binding profile across receptor panel” value [2] was “activity against a broad representation of receptor sub-types”, the EC50 [4, 9] was 0.13 µM and the EC50 [5, 10] was 0.101 µM.
In the case of `CN1CCC[C@@H]1CCO[C@@H](c1ccccc1)c1ccc(Cl)cc1` [compound 37], the EC50 [4, 9] is reported as 1.33 µM and the EC50 [5, 10] is reported as 1.4 µM.
